Data as given in patent US8076281B2, “Use of a ghrelin agonist to improve the catabolic effects of glucocorticoid treatment” (IPSEN Pharma, S.A.S., priority 2006, dated 2011).

Assays:
[1] = 24-hour food intake and food efficiency; type: in vivo, Sprague-Dawley rats; conditions: for 24-h food intake: after 10 days of dexamethasone treatment, compared with saline-treated animals, FIG. 4A; for food efficiency: ratio body weight gain (g) / food intake (g), compared with saline treatment
Protocol: (§1) Beginning on the 23rd day (i.e., the animals were 23 days old), 16 of the study animals were treated intraperitoneally (Ip) daily with 40 μg/kg of either saline or dexamethasone sodium phosphate (sold under the trademark Decadron® by Merck Pharmaceuticals, West Point, Pa.). Beginning on the 30th day (i.e., the animals were 30 days old), the subgroup of 16 studied animals was further divided into groups of 8 and treated subcutaneously three times daily (at approximately 9:00 am, 1:00 pm and 5:00 pm) with either 80 nmoles/kg of the preferred ghrelin analog [Aib^2, Glu^3(NH-hexyl)]hGhrelin(1-28)-NH2 (SEQ ID NO:2) (IPSEN, Milford, Mass.) dissolved in a sterile saline solution with 0.25% bovine serum albumin or vehicle (the saline-bovine serum albumin solution alone). This regimen continued for 24 days during which time the studied animals were weighed two times per week. At irregular intervals, the cumulative food intake for a 24-hour period of time was measured. Beginning on the 46th day (i.e., the animals were 46 days old), the length of the test and control animals from nose to anus was measured (hereinafter referred to as “the nose-anal length”). On the 47th day (i.e., the animals were 47 days old), all food was denied to the test subjects commencing at 8:00 am. Small samples of blood were taken via percutaneous puncture of the tail to assess blood glucose levels during the treatment period.
Food efficiency was calculated as the ratio between body weight gain (in grams) and food intake (in grams) measured over the same time interval.

[2] = Effects of pharmacological treatments on plasma hormones and glucose concentrations; type: in vivo, Sprague-Dawley rats; conditions: for plasma IGF-1 concentration (in words): compared with saline; for plasma corticosterone (in words) / plasma insulin (in words): compared with saline / vehicle
Protocol: as §1
The test animals received two subcutaneous administrations of [Aib^2, Glu^3(NH-hexyl)]hGhrelin(1-28)-NH2 (SEQ ID NO:2) at approximately 9:00 am and 1:00 pm. The studied animals were sacrificed by rapid decapitation at approximately 2:00 pm, trunk blood collected for hormone level determinations, and the epididymal fat pads removed and weighed.
Samples of trunk blood were taken from the test subjects following decapitation. The blood samples were collected in tubes containing EDTA, separated by centrifugation, and stored at −20° C. Plasma insulin, IGF-1, and corticosterone levels were all measured using commercial RIA kits (Insulin and Corticosterone kits were both obtained from ICN-Biomedicals, Asse-Relegem, BELGIUM and the rIGF-1 test kit was obtained from Mediagnostic GMbH, Tubingen, GERMANY). Glucose concentration was determined using the Glucotrend® Soft Test System blood glucose meter (Roche Diagnostics, Barcelona, SPAIN).
Unless otherwise stated, the results reported in FIGS. 3-6 are expressed as the mean±SEM of eight replicate test subjects. Data was analyzed for statistical significance by one-way ANOVA which determines the variation (variance) within the groups and how that variation translates into variation (i.e. differences) between the groups, taking into account how many subjects there are in each group. […] The linear correlation analysis was performed either by Pearson's parametric test or by Spearman's nonparametric test. A P value below 0.05 was considered significant.

[3] = Effects of pharmacological treatments on growth parameters in young rats; type: in vivo, Sprague-Dawley rats; conditions: FIG. 3; for somatic growth: young male rats, compared to SAL-treated rats
Protocol: Thirty-two prepubertal male Sprague-Dawley rats approximately 21 days old and weighing between 45 and 55 grams, were obtained from Harlan, Italy (S. Pietro al Natisone, ITALY). During the study, the animals were maintained in accordance with the guidelines of the Italian Ministry of Health for the care and use of laboratory animals (Decreto legge 116/92). The animals were randomly divided into two treatment groups and kept in a controlled environment at a constant temperature of 21-23° C. with 12:12 light/dark exposure continuous period wherein the light exposure began at approximately 8:00 am and ended at approximately 8:00 pm. The animals were provided with water and food ad libitum consisting of an approximate 3200 calories/kg daily diet of standard pellet chow provided by Piccioni, Gessate-Milano, Italy (containing at least 19% protein, 3% fat and 56% carbohydrate).
Beginning on the 23rd day (i.e., the animals were 23 days old), 16 of the study animals were treated intraperitoneally (Ip) daily with 40 μg/kg of either saline or dexamethasone sodium phosphate (sold under the trademark Decadron® by Merck Pharmaceuticals, West Point, Pa.). […] At irregular intervals, the cumulative food intake for a 24-hour period of time was measured. Beginning on the 46th day (i.e., the animals were 46 days old), the length of the test and control animals from nose to anus was measured (hereinafter referred to as “the nose-anal length”). […]
Unless otherwise stated, the results reported in FIGS. 3-6 are expressed as the mean±SEM of eight replicate test subjects. Data was analyzed for statistical significance by one-way ANOVA which determines the variation (variance) within the groups and how that variation translates into variation (i.e. differences) between the groups, taking into account how many subjects there are in each group. […]

[4] = in the rat; cited from earlier work

Compound | 24-h food intake [1] | food efficiency ([1]; FIG. 4B) | cumulative 24-hour food intake ([1]; up to 10 days from the beginning of the treatment) | plasma IGF-1 concentration (in words) [2] | plasma corticosterone (in words) [2] | plasma insulin (in words) [2] | somatic growth [3] | glucocorticoid-mediated GH-inhibition [4] | decrease of food efficiency induced by dexamethasone ([1]; in dexamethasone-treated rats, FIG. 4B) | Glucose ([2]; at sacrifice (day 47), mean ± SEM of eight animals) [mg/dL] | suppression of the HPA axis (corticosterone) in dexamethasone-treated animals ([2]; in dexamethasone-treated animals) | IGF-1 suppression in dexamethasone-treated subjects ([2]; in dexamethasone-treated subjects) | growth suppression induced by DEX ([3]; concomitant treatment in DEX-treated rats)
C[C@@H]1C[C@H]2[C@@H]3CCC4=CC(=O)C=C[C@]4(C)[C@@]3(F)[C@@H](O)C[C@]2(C)[C@@]1(O)C(=O)CO [Dexamethasone, 9-fluoro-11β, 17, 21-trihydroxy-16a-methylpregna-1,4-diene-3,20-dione, reference compound] | significant reduction | significantly reduced food efficiency | did not significantly affect | significantly reduced | suppressed almost completely | tended to increase plasma insulin concentration, but the effect did not reach statistical significance | significantly decreased | – | – | – | – | – | –
GHRP-6 | – | – | – | – | – | – | – | completely counteract | – | – | – | – | –
[Aib^2, Glu^3(NH-hexyl)]hGhrelin(1-28)-NH2 (GXEFLSPEHQRVQQRKESKKPPAKLQPR; Aib2, Glu3 NH-hexyl, C-terminal amide; Ghrelin analog) | increased daily food intake | increased food efficiency | – | higher IGF-1 levels | clear-cut increase | unchanged | significantly increased | – | able to reverse | 122 ± 3 | not able to overcome | partially reversed | reversed
